Assay: Anti-oxidative potential (AP) in vitro, test radical DPPH, ESR spectroscopy
Assay type: biochemical
Details: 1% ferulic acid
Description: The anti-oxidative potential (AP) of all described formulations was determined in vitro. In this method the formulations were incubated with a test radical (DPPH) and afterwards the reduction of these radicals over the time was measured by ESR (electron spin resonance spectroscopy). AP=amount of free radicals/mg of tested substance*minute.

COc1cc(/C=C/C(=O)O)ccc1O [1% ferulic acid (EtOH/water), ferulic acid]
anti-oxidative potential (AP): AP = 723 amount of free radicals/mg of tested substance*minute
